Among the test systems are SK-MEL-2 melanoma; LOX IMVI melanoma; SN12C renal; SF-268 CNS; HT29 colon; OVCAR-8 ovarian; HCT-15 colon; MOLT-4 leukemia; MDA-MB-231 breast; T-47D breast; HS 578T breast.
Holding throughout (experiment): NCI anticancer screen, dose series, 48 h

Structures are written as SMILES.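 Test compounds were applied to cells in 96-well plates for 48 hours at 5 doses. TGI marks complete inhibition of growth.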 Some results are limits rather than exact numbers.

For 16 compounds, TGI results are on record in PubChem BioAssay (NCI).

With `Cc1cc(N(CCC#N)CCC#N)ccc1/C=C(\N=[N+]=[N-])C(=O)NC(=O)COc1ccccc1`, the TGI with SK-MEL-2 melanoma, in the test with LOX IMVI melanoma, with SN12C renal, with SF-268 CNS, in the test with HT29 colon and in the test on OVCAR-8 ovarian was greater than 100 µM throughout. The TGI in the test with HCT-15 colon and in the test on MOLT-4 leukemia was greater than 100 µM in each case.

In the case of `Cc1cc2nc3c(C#N)c4c(c(Cl)n3c2cc1C)CCC4`, the TGI in the test with LOX IMVI melanoma was 32 µM; in the test on SN12C renal, 33.8 µM; in the test on MDA-MB-231 breast, 35.1 µM; in the test with SF-268 CNS, 53.3 µM; in the test with OVCAR-8 ovarian, 37.4 µM; in the test with T-47D breast, greater than 100 µM. The TGI was 37.1 µM in the test with HCT-15 colon and greater than 100 µM in the test on MOLT-4 leukemia.

On to `CCOC(=O)C(C(=O)OCC)S(C)(=O)=O`, for which the TGI in the test with SK-MEL-2 melanoma, with LOX IMVI melanoma, in the test with SN12C renal, with HT29 colon, in the test with OVCAR-8 ovarian and in the test on MOLT-4 leukemia was greater than 100 µM in each case.

`COc1c(N2CCCCC2)c2c(=O)c3ccccc3oc2c2c3ccccc3n(C)c12`: the TGI in the test with SK-MEL-2 melanoma, in the test with LOX IMVI melanoma, with SN12C renal, in the test with HS 578T breast, in the test with MDA-MB-231 breast and in the test on SF-268 CNS was greater than 100 µM throughout. In addition, the TGI in the test with HT29 colon, in the test with OVCAR-8 ovarian, in the test with HCT-15 colon and in the test with MOLT-4 leukemia was greater than 100 µM in each case.

`C=C1C(=O)O[C@H]2C1C[C@H](O)/C(C)=C/CC[C@@]1(C)O[C@H]21` (stereo partly specified): the TGI with SK-MEL-2 melanoma was found to be 39.9 µM; in the test with LOX IMVI melanoma it was 23.5 µM; with SN12C renal, 33.8 µM; in the test on HS 578T breast it was 75.2 µM; with MDA-MB-231 breast, 38.4 µM; with SF-268 CNS it was 74.5 µM. Further, the results for the TGI with HT29 colon, with OVCAR-8 ovarian and in the test with HCT-15 colon were 50.9 µM, 37.6 µM and 31.1 µM, respectively.

As to `O=C(O)CCC1(CCC(=O)O)CCCCCCCCC(CCC(=O)O)(CCC(=O)O)C(=O)C1=O`, the TGI in the test on SK-MEL-2 melanoma, in the test with LOX IMVI melanoma, in the test on SN12C renal, with HS 578T breast, in the test on SF-268 CNS and in the test with HT29 colon was greater than 100 µM each time. The TGI in the test on OVCAR-8 ovarian, in the test with T-47D breast and with HCT-15 colon was greater than 100 µM throughout.

As to `CC(C)(CN1CCCCC1)C(=O)CC(SCCS(=O)(=O)O)c1ccccc1` (stereo unspecified), the TGI stood at 96.5 µM with SK-MEL-2 melanoma; 58.6 µM in the test with SN12C renal; 90.1 µM with HS 578T breast; 32.4 µM with MDA-MB-231 breast; 65.8 µM with SF-268 CNS; 31.7 µM with HT29 colon. Also, the TGI with OVCAR-8 ovarian was 65 µM; with HCT-15 colon, 42.9 µM; in the test with MOLT-4 leukemia, 36.1 µM.

As to `N#Cc1c2c(c(Nc3cccc(C(F)(F)F)c3)n3c1nc1ccccc13)CCCC2`, the TGI in the test on LOX IMVI melanoma came to 35.8 µM; in the test on SN12C renal, 88.8 µM; with MDA-MB-231 breast it was 58.9 µM; in the test on SF-268 CNS, 43.1 µM; in the test with HT29 colon it was 56.4 µM; in the test with OVCAR-8 ovarian, 34.1 µM. Also, the TGI in the test with T-47D breast, in the test on HCT-15 colon and in the test with MOLT-4 leukemia was greater than 100 µM throughout.

`COc1cc2cnc3c4cc(O)ccc4ccc3c2cc1OC`: the TGI with SK-MEL-2 melanoma was 87.2 µM; in the test on LOX IMVI melanoma it was greater than 100 µM; in the test on SN12C renal it was greater than 100 µM; in the test with SF-268 CNS it was greater than 100 µM; in the test on HT29 colon it was greater than 100 µM; in the test on OVCAR-8 ovarian, greater than 100 µM. The TGI with HCT-15 colon and in the test with MOLT-4 leukemia was greater than 100 µM in each case.

Take `O=S1(=O)OCCOS(=O)(=O)C1(Br)Br`: the TGI in the test with SK-MEL-2 melanoma, in the test on SN12C renal, with SF-268 CNS, in the test on HT29 colon, in the test on OVCAR-8 ovarian and in the test on MOLT-4 leukemia was greater than 100 µM in each case.

`O=C(O)c1ccc(Nc2nc3ccc(C(F)(F)F)cc3nc2-c2ccccc2)cc1`: the TGI is greater than 100 µM with LOX IMVI melanoma; greater than 100 µM in the test with SN12C renal; greater than 100 µM in the test on HS 578T breast; greater than 100 µM in the test on SF-268 CNS; greater than 10 µM in the test with HT29 colon; greater than 100 µM with OVCAR-8 ovarian. For the same compound, the TGI in the test on T-47D breast was 52.8 µM; with HCT-15 colon it was 57.3 µM; with MOLT-4 leukemia it was greater than 100 µM.

For `N#C/C(=C\c1ccccc1F)C(=O)c1ccccc1`, the TGI in the test on SK-MEL-2 melanoma, in the test with LOX IMVI melanoma, with SN12C renal, in the test on SF-268 CNS, in the test on HT29 colon and in the test with OVCAR-8 ovarian was greater than 100 µM throughout. For the same compound, the TGI with HCT-15 colon and in the test with MOLT-4 leukemia was greater than 100 µM in each case.

As to `CN(C)C1(N(C)C)Oc2c(c(=O)n(C)c(=O)n2C)C(c2ccc(F)cc2)C1(F)F` (stereo unspecified), the TGI in the test with SK-MEL-2 melanoma, with LOX IMVI melanoma, with MDA-MB-231 breast, in the test with SF-268 CNS, in the test on T-47D breast and in the test with HCT-15 colon was greater than 100 µM in each case.

With `Cc1nc2c(n1Cc1ccc(F)cc1)C(=O)c1ccccc1C2=O`, the TGI in the test with SK-MEL-2 melanoma, with LOX IMVI melanoma, in the test on SN12C renal, with SF-268 CNS, in the test with HT29 colon and with OVCAR-8 ovarian was greater than 100 µM in each case. The TGI in the test on HCT-15 colon and in the test with MOLT-4 leukemia was greater than 100 µM each time.

As for `O=C(OCC1CC(C2(O)CCCCC2)C(=O)O1)c1ccccc1` (stereo unspecified), the TGI in the test on SK-MEL-2 melanoma, with LOX IMVI melanoma, in the test on SN12C renal, in the test with MDA-MB-231 breast, with SF-268 CNS and with HT29 colon was greater than 100 µM each time. The TGI with OVCAR-8 ovarian, with HCT-15 colon and with MOLT-4 leukemia was greater than 100 µM in each case.

Turning to `CC1=NC(=O)CNN1C1=NNC2(C(=O)N1)c1ccccc1-c1ccccc12`, the TGI with SK-MEL-2 melanoma, in the test with LOX IMVI melanoma, with SN12C renal, in the test on HS 578T breast, with MDA-MB-231 breast and in the test with SF-268 CNS was greater than 100 µM in each case. Further, the TGI with HT29 colon, in the test with OVCAR-8 ovarian and with HCT-15 colon was greater than 100 µM each time.
